Entries after “also recorded” stand apart in the source; their conditions may differ.
How the values were obtained:
recombinant human ACSS2 = biological target: T1, recombinant human ACSS2 (Homo sapiens, UniProt Q9NR19); experiment: ACSS2 biochemical assay (Transcreener AMP assay); conditions: in vitro biochemical TranScreener assay; mean±S.D., n≥3 (FIG. 1C)
T1 construct: purchased Origene TP304260
Procedure: ACSS2 enzyme activity was measured using the TRANSCREENER® TRF AMP/GMP assay (Bellbrook Labs). Recombinant ACSS2 was purchased from Origene. The assay was performed in white, opaque, low volume 384 well plates. Test compounds were diluted in 100% DMSO and then 100 nL of each dilution was transferred using the Janus MDT Nanohead to assay plates containing 3 μL ACSS2 (2.5 nM) in assay buffer (30 mM HEPES, pH 7.4, 140 mM NaCl, 2 mM MgCl2, 5 mM sodium acetate, 2 mM DTT, 0.005% Brij35). Three microliters of substrate mix containing 100 μM ATP and 10 μM coenzyme A was added to the plates followed by a 120 min incubation. The final concentrations of enzyme and substrates in the reaction mix was 1.25 nM ACSS2, 50 μM ATP, and 5 μM coenzyme A. After incubation, 3 μL of terbium conjugated AMP antibody and AMP tracer was added to the plates according to the methods described by BellBrook Labs. After an additional 30 min, the HTRF signal was measured using an Envision Plate reader. Data were normalized to % inhibition, where 100% inhibition is equal to the counts obtained in the absence of ACSS2, and 0% inhibition is equal to the counts obtained in the complete reaction including a DMSO control.
A robust biochemical screening assay was set up for testing compounds as potential ACSS2 inhibitors. […]

Brpkp110 tumors = experiment: Brpkp110 tumor xenograft growth in NSG mice; format: in vivo, mouse; conditions: daily intraperitoneal injection for two weeks, 100 mg/kg (FIG. 5E)
Procedure: For BT474 mouse xenograft studies 5-6 week old female NSG […] were anesthetized and one 17β-estradiol 60 day release pellet (Innovative Research of America Cat. No. SE-121) was injected subcutaneously via 10 gauge precision trochar into the lateral side of the neck between the ear and shoulder. 24 hours later 10^5 BT474 luciferase positive cells in 100 μl PBS:matrigel (growth factor reduced) were injected subcutaneously into the hind limb. For A7C11 and Brpkp110 xenografts, 5×10^5 cells in 100 μl PBS:Matrigel (growth factor reduced Corning Cat. No. 356231) were subcutaneously injected into the hindlimb of 5-6 week old female NSG mice […]. Following tumor establishment in all groups, mice were randomized and treated intraperitoneally (IP) daily with vehicle (10% DMSO, 10% absolute ethanol, 20% solutol, 60% water containing 0.5% Tween20) or 100 mg/kg VY-3-135 as indicated in the figure legend. Tumors were measured thrice weekly via caliper measurement and tumor volume calculated as (L×W^2)/2 (where L is the longer of the 2 measurements). At the study conclusion all tumors were resected and processed fresh or flash frozen in liquid nitrogen and stored at −80° C. for downstream analysis.
Tumor bearing mice were given daily intraperitoneal injection of VY-3-135 for two weeks. […]

T1 sequence (Q9NR19 whole entry): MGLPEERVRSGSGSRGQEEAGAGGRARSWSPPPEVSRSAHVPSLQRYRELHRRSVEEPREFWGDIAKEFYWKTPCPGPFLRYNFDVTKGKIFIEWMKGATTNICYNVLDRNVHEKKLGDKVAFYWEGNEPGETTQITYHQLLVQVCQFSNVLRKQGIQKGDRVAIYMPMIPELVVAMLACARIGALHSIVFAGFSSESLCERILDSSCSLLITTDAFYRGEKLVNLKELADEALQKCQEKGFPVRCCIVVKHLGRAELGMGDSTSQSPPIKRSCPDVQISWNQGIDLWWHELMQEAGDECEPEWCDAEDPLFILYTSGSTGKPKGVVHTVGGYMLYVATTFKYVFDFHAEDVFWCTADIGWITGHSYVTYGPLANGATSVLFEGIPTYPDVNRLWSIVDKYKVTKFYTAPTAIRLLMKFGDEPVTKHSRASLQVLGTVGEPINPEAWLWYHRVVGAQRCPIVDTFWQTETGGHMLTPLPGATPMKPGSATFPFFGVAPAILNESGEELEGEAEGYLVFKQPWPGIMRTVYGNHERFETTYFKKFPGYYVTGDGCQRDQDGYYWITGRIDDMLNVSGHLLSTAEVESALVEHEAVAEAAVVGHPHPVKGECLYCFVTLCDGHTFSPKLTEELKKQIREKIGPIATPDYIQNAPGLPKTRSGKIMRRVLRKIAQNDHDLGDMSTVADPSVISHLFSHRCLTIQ

IC50 (recombinant human ACSS2): 44 ± 3.85 nM
Compound: CCn1c(C(O)(c2ccccc2)c2ccccc2)nc2ccc(C(=O)NC[C@@H](C)O)cc21 [VY-3-135, (R)-1-ethyl-2-(hydroxydiphenylmethyl)-N-(2-hydroxypropyl)-1H-benzo[d]imidazole-6-carboxamide]
Brpkp110 tumor growth (Brpkp110 tumors): causes a significant decrease in Brpkp110 tumor growth; also recorded: caused significant reduction in Brpkp110 tumor growth
